According to US20180169145A1, “COMPOSITIONS AND METHODS FOR USING LAMELLAR BODIES FOR THERAPEUTIC PURPOSES” (priority 2015, published 2018):
Like-named read-outs stand apart in the source and are kept apart here.

What was measured:
[1] = tested on: Pseudomonas aeruginosa; test: MBEC assay: sessile (biofilm) MIC of antibiotics in absence and presence of LMS-611; format: cell-based; settings: for effect of LMS-611 with antibiotic in reducing biofilm MICs, compared with antibiotic alone: strain PA01, FIG. 14-17; for sessile MIC + LMS: in presence of LMS-611 (10 mg/mL); for reduction of sessile MIC of the antibiotic by LMS-611: PA strains, in combination with LMS-611; for MIC: Pseudomonas aeruginosa; for MIC / sessile MIC: antibiotic alone
Method: Pseudomonas aeruginosa strains PA01, PAl4, two clinical Cystic Fibrosis (CF) strains […], YH1 and Burkholderia cenocepacia strains […]7 and YHBCC8 were grown on a Nunc Immunosorp PEG plate model for 48 h on a rocking platform. […] Scanning electron microscopy was used to assess the treated biofilms.

[2] = tested on: Pseudomonas aeruginosa; test: Artificial sputum medium (ASM) biofilm assay; format: cell-based; settings: for bacterial kill of antibiotic with LMS-611: LMS-611 at 40 μg/ml
Description: ASM is artificial sputum medium.
Images of PA biofilm in ASM. Quantification of bacterial count from the ASM biofilm (CFU/mL).
In vitro, Artificial Sputum Models (ASM), considered to represent biofilm typical of that seen in CF, were used to study Pseudomonas aeruginosa infection.
Pyocyanin, a blue-green phenazine pigment produced by P. aeruginosa and controlled by the quorum sensing system (a system of inter-bacterial signalling which correlates to population density) and thus its presence and concentration in a bacterial culture can be used to give an indication of the strength of quorum sensing activity.
Measurement of metabolic activity of Pseudomonas aeruginosa in the Artificial Sputum Model (ASM) using a Resazurin assay, in which the fluorescence detected is directly proportional to the metabolic activity of the bacteria (FIG. 3).

[3] = tested on: PA strains; test: Nebulisation of LMS-611 combined with antibiotic, multistage liquid impactor (MSLI); parameters: species or system Pseudomonas aeruginosa; settings: colistin: PA2783 strain, stages representing site of cystic fibrosis lung disease; tobramycin: PA strain 27853
Description: FIG. 18 illustrates the effect of nebulisation of LMS-611 when combined with Colistin with PA strain 217M using nebulisers with two different modes of operation (Pari-boy (jet-type) and Pari Flow (oscillating mesh)) wherein a multistage liquid impactor (MSLI) was used to measure the aerodynamic particle size distribution and deposition from nebulised LMS-611 compositions wherein the MSLI from Copley measures particle size in accordance with the European Pharmacopeia guidelines (Chapter […]) and the impactor has five stages simulating the various parts of the human respiratory system. Particles with the same inertia will impact upon a particular stage, whilst smaller particles will pass onto the next impaction stage such that by analysing the amount of LMS-611 deposited on the various stages the fine particle dose and fraction can be calculated wherein the fine particle dose (respirable fraction) is the proportion of the dose from an inhalation device (nebuliser) that is made available to the airways, and this correlates with the dose of LMS-611 that reaches the conducting airways during inhalation;

[4] = tested on: Burkholderia cenocepacia; test: MBEC assay: sessile (biofilm) MIC of antibiotics in absence and presence of LMS-611; format: cell-based; settings: for MIC: Burkholderia cenocepacia
Method: Pseudomonas aeruginosa strains PA01, PAl4, two clinical Cystic Fibrosis (CF) strains H183, YH1 and Burkholderia cenocepacia strains K56-2, YHBCC5, YHBCC6, YHBCC7 and YHBCC8 were grown on a Nunc Immunosorp PEG plate model for 48 h on a rocking platform. […] Scanning electron microscopy was used to assess the treated biofilms.

Molecule | effect of LMS-611 with antibiotic in reducing biofilm MICs, compared with antibiotic alone [1] | sessile MIC + LMS ([1]; PA strain H183) [µg/mL] | sessile MIC + LMS ([1]; PA strain PA01) [µg/mL] | sessile MIC + LMS ([1]; PA strain PA14) [µg/mL] | sessile MIC + LMS ([1]; PA strain YH1) [µg/mL] | reduction of sessile MIC of the antibiotic by LMS-611 [1] | MIC ([1]; PA14, PA strain PA14) [µg/mL] | MIC ([1]; PA strain H183) [µg/mL] | MIC ([1]; PA strain PA01) [µg/mL] | MIC ([1]; PA strain YH1) [µg/mL] | also measured
CC(C)(O/N=C(\C(=O)N[C@@H]1C(=O)N2C(C(=O)[O-])=C(C[n+]3ccccc3)CS[C@H]12)c1csc(N)n1)C(=O)O [ceftazidime] | more effective |  |  |  |  |  |  |  |  |  | 
NC[C@H]1O[C@H](O[C@H]2[C@H](O)[C@@H](O[C@H]3O[C@H](CO)[C@@H](O)[C@H](N)[C@H]3O)[C@H](N)C[C@@H]2N)[C@H](N)C[C@@H]1O [Tobramycin] |  | <4000 | <4000 | <4000 | 500 | 1-4 fold | < 4000 | < 4000 | < 4000 | 2000 | bacterial kill of antibiotic with LMS-611 [2]: total bacterial kill; bacterial clearance of LMS-611 plus antibiotic compared to antibiotic treatment alone ([2]; preformed biofilm, in combination with LMS-611): significantly greater bacterial clearance; bactericidal effect of nebulised antibiotic combined with LMS-611 by MSLI stage [3]: greater on the 6.8 μm, 3.1 μm and 1.7 μm stages
CC[C@H]1OC(=O)[C@H](C)[C@@H](O[C@H]2C[C@@](C)(OC)[C@@H](O)[C@H](C)O2)[C@H](C)[C@@H](O[C@@H]2O[C@H](C)C[C@H](N(C)C)[C@H]2O)[C@](C)(O)C[C@@H](C)C(=O)[C@H](C)[C@@H](O)[C@]1(C)O [erythromycin] |  |  |  |  |  |  |  |  |  |  | reduction of sessile MIC of the antibiotic by LMS-611 ([4]; BCC strains, in combination with LMS-611): No effect
Gentamicin | more effective | 500 | 500 | 500 |  | 4-8 fold |  |  |  |  | sessile MIC ([1]; PA strain H183): 4000 µg/mL; sessile MIC ([1]; PA strain PA01): 4000 µg/mL; sessile MIC ([1]; PA strain PA14): 4000 µg/mL; sessile MIC ([1]; PA strain YH1): 500 µg/mL; sessile MIC ([4]; BCC strain K56-2, antibiotic alone): 256000 µg/mL; sessile MIC + LMS ([4]; BCC strain K56-2, in presence of LMS-611 (10 mg/mL)): 64000 µg/mL; sessile MIC ([4]; BCC strain YHBCC5, antibiotic alone): >256000 µg/mL; sessile MIC + LMS ([4]; BCC strain YHBCC5, in presence of LMS-611 (10 mg/mL)): 256000 µg/mL; sessile MIC ([4]; BCC strain YHBCC6, antibiotic alone): 64000 µg/mL; sessile MIC + LMS ([4]; BCC strain YHBCC6, in presence of LMS-611 (10 mg/mL)): 16000 µg/mL; sessile MIC ([4]; BCC strain YHBCC7, antibiotic alone): 128000 µg/mL; sessile MIC + LMS ([4]; BCC strain YHBCC7, in presence of LMS-611 (10 mg/mL)): 16000 µg/mL
C[C@@H](O)[C@H]1C(=O)N2C(C(=O)O)=C(S[C@@H]3CN[C@H](C(=O)N(C)C)C3)[C@H](C)[C@H]12 [Meropenem] |  | 1000 | 2000 | 2000 | 1000 | 1-2 fold | 2000 | 2000 | 2000 | 2000 | 
CCN1CCN(C(=O)N[C@@H](C(=O)N[C@@H]2C(=O)N3[C@@H]2SC(C)(C)[C@@H]3C(=O)O)c2ccccc2)C(=O)C1=O [Piperacillin] | more effective | 250 | 250 | 1000 | 1000 | 4-16 fold | 8000 | 4000 | 2000 | 8000 | MIC ([4]; BCC strain K56-2, antibiotic alone, read-out: sessile MIC): 64000 µg/mL; MIC ([4]; BCC strain K56-2, in presence of LMS-611 (10 mg/mL), read-out: sessile MIC + LMS): 16000 µg/mL; MIC ([4]; BCC strain YHBCC5, antibiotic alone, read-out: sessile MIC): 32000 µg/mL; MIC ([4]; BCC strain YHBCC5, in presence of LMS-611 (10 mg/mL), read-out: sessile MIC + LMS): 4000 µg/mL; MIC ([4]; BCC strain YHBCC6, antibiotic alone, read-out: sessile MIC): 32000 µg/mL; MIC ([4]; BCC strain YHBCC6, in presence of LMS-611 (10 mg/mL), read-out: sessile MIC + LMS): 32000 µg/mL; MIC ([4]; BCC strain YHBCC7, antibiotic alone, read-out: sessile MIC): 32000 µg/mL; MIC ([4]; BCC strain YHBCC7, in presence of LMS-611 (10 mg/mL), read-out: sessile MIC + LMS): 4000 µg/mL
colistin | more effective |  |  |  |  |  |  |  |  |  | bactericidal effect of nebulised antibiotic combined with LMS-611 by MSLI stage [3]: greatest bactericidal effect
O=C(O)c1cn(C2CC2)c2cc(N3CCNCC3)c(F)cc2c1=O [Ciprofloxacin] |  |  |  |  |  |  |  |  |  |  | bacterial kill of antibiotic with LMS-611 [2]: total bacterial kill
C[C@H]1[C@H](NC(=O)/C(=N\OC(C)(C)C(=O)O)c2csc(N)n2)C(=O)N1S(=O)(=O)O [Aztreonam] |  | 2000 | 2000 | 2000 | 1000 | 2-4 fold | 4000 | 4000 | 4000 | 4000 | 
